Measurements published in the NIST ThermoML archive (doi:10.1016/j.jct.2015.12.005).

Assay: molar heat capacity at saturation pressure

c1ccc2c(c1)CCC2 [indane]
Crystal 1, Vacuum adiabatic calorimetry
Details | molar heat capacity [J/K/mol]
184.22 K | 100.9
189.01 K | 103.32
194.75 K | 106.22
199.29 K | 108.5
200 K | 108.89
205.19 K | 111.62
209.54 K | 113.96
212.42 K | 115.59
214.32 K | 116.35
220 K | 119.51
221.79 K | 120.47

Liquid
Details | molar heat capacity [J/K/mol]
221.79 K, Vacuum adiabatic calorimetry | 163.91
228.22 K, Vacuum adiabatic calorimetry | 165.72
228.34 K, Vacuum adiabatic calorimetry | 165.76
229.69 K, Vacuum adiabatic calorimetry | 166.13
229.78 K, Vacuum adiabatic calorimetry | 166.24
230 K, Vacuum adiabatic calorimetry | 166.22
236.45 K, Vacuum adiabatic calorimetry | 168.04
238.81 K, Vacuum adiabatic calorimetry | 168.76
240 K, Vacuum adiabatic calorimetry | 169.13
250 K, Vacuum adiabatic calorimetry | 172.31
250.13 K, Vacuum adiabatic calorimetry | 172.35
260 K, Vacuum adiabatic calorimetry | 175.75
262.1 K, Vacuum adiabatic calorimetry | 176.48
262.28 K, Vacuum adiabatic calorimetry | 176.54
270 K, Vacuum adiabatic calorimetry | 179.48
274.49 K, Vacuum adiabatic calorimetry | 181.2
275.32 K, Vacuum adiabatic calorimetry | 181.5
280 K, Vacuum adiabatic calorimetry | 183.04
286.77 K, Vacuum adiabatic calorimetry | 185.35
288.6 K, Vacuum adiabatic calorimetry | 185.93
290 K, Vacuum adiabatic calorimetry | 186.46
297.89 K, Vacuum adiabatic calorimetry | 189.38
298.15 K, Vacuum adiabatic calorimetry | 189.48
299.11 K, Vacuum adiabatic calorimetry | 189.82
300 K, Vacuum adiabatic calorimetry | 190.18
301.9 K, Vacuum adiabatic calorimetry | 190.91
310 K, Vacuum adiabatic calorimetry | 194.12
310.2 K, Vacuum adiabatic calorimetry | 194.19
311.46 K, Vacuum adiabatic calorimetry | 194.67
320 K, Vacuum adiabatic calorimetry | 198.07
322.46 K, Vacuum adiabatic calorimetry | 199.08
330 K, Vacuum adiabatic calorimetry | 202.15
333.38 K, Vacuum adiabatic calorimetry | 203.54
334.63 K, Vacuum adiabatic calorimetry | 204.04
340 K, Vacuum adiabatic calorimetry | 206.3
347.49 K, Vacuum adiabatic calorimetry | 209.45
350 K, Vacuum adiabatic calorimetry | 210.48
360 K, Vacuum adiabatic calorimetry | 214.61
360.87 K, Vacuum adiabatic calorimetry | 214.96
370 K, Vacuum adiabatic calorimetry | 218.8
374.71 K, Vacuum adiabatic calorimetry | 220.8
380 K, Vacuum adiabatic calorimetry | 223.03
388.61 K, Vacuum adiabatic calorimetry | 226.66
390 K, Vacuum adiabatic calorimetry | 227.25
400 K, Vacuum adiabatic calorimetry | 231.47
402.42 K, Vacuum adiabatic calorimetry | 232.49
409.24 K, Vacuum adiabatic calorimetry | 235.36
410 K, Vacuum adiabatic calorimetry | 235.68
415.99 K, Vacuum adiabatic calorimetry | 238.21
420 K, Vacuum adiabatic calorimetry | 239.88
426.54 K, Vacuum adiabatic calorimetry | 242.6
428.9 K, Vacuum adiabatic calorimetry | 243.53
430 K, Vacuum adiabatic calorimetry | 244.05
439.86 K, Vacuum adiabatic calorimetry | 248.28
440 K, Vacuum adiabatic calorimetry | 248.4
450 K, Small sample (50 mg) DSC | 253.17
460 K, Small sample (50 mg) DSC | 258.04
470 K, Small sample (50 mg) DSC | 262.7
480 K, Small sample (50 mg) DSC | 267.2
490 K, Small sample (50 mg) DSC | 271.71
500 K, Small sample (50 mg) DSC | 276.21
510 K, Small sample (50 mg) DSC | 280.72
520 K, Small sample (50 mg) DSC | 285.23
530 K, Small sample (50 mg) DSC | 289.72
540 K, Small sample (50 mg) DSC | 294.22
550 K, Small sample (50 mg) DSC | 298.7
560 K, Small sample (50 mg) DSC | 303.18
570 K, Small sample (50 mg) DSC | 307.65
580 K, Small sample (50 mg) DSC | 312.12
590 K, Small sample (50 mg) DSC | 316.59
600 K, Small sample (50 mg) DSC | 321.05
